Source: ChEMBL document CHEMBL1201862, “PubChem BioAssay data set” (2004)
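Five compound concentrations were applied to cells in 96-well plates for 48 hours; endpoints were derived by simple linear interpolation of the resulting dose-response curve. Abbreviation: GI50, concentration required for 50% inhibition of growth.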 Calls of active or inactive are those of the source. Cut-off read from the data, not from the text of the source: active = GI50 up to about 1.1 µM and inactive = higher.

Tests used:
Assay in all cases: inhibition of tumour cell growth, NCI panel, 48 h
SF-539 = system: SF-539
SF-295 = system: SF-295
K562 = system: K562
HCT-116 = system: HCT-116
SK-MEL-5 = system: SK-MEL-5
ACHN = system: ACHN
HT-29 = system: HT-29
OVCAR-3 = system: OVCAR-3
LOX IMVI = system: LOX IMVI
UACC-257 = system: UACC-257
EKVX = system: EKVX
CCRF-CEM = system: CCRF-CEM
TK-10 = system: TK-10
SK-OV-3 = system: SK-OV-3
MCF7 = system: MCF7
BT-549 = system: BT-549
OVCAR-8 = system: OVCAR-8
T47D = system: T47D
PC-3 = system: PC-3
NCI-H226 = system: NCI-H226

SMILES	GI50 (SF-539)	GI50 (SF-295)	GI50 (K562)	GI50 (HCT-116)	GI50 (SK-MEL-5)	GI50 (ACHN)	GI50 (HT-29)	GI50 (OVCAR-3)	GI50 (LOX IMVI)	GI50 (UACC-257)	GI50 (EKVX)	GI50 (CCRF-CEM)	GI50 (TK-10)	GI50 (SK-OV-3)	GI50 (MCF7)	GI50 (BT-549)	GI50 (OVCAR-8)	GI50 (T47D)	GI50 (PC-3)	GI50 (NCI-H226)
CC[C@@]1(O)C(=O)OCc2c1cc1n(c2=O)Cc2c-1nc1ccccc1c2Cl	< 0.01 µM (active)	< 0.01 µM (active)	0.0329 µM (active)	0.0168 µM (active)	< 0.0141 µM (active)	< 0.01 µM (active)	0.0461 µM (active)	0.296 µM (active)	< 0.01 µM (active)	0.112 µM (active)	0.659 µM (active)	< 0.01 µM (active)	6.21 µM (inactive)	0.0217 µM (active)	< 0.01 µM (active)	< 0.0136 µM (active)	0.0146 µM (active)	< 0.01 µM (active)	< 0.0214 µM (active)	< 0.01 µM (active)
O=C(NC1=C(Cl)C(=O)c2ccccc2C1=O)C(=O)c1c(O)c2ccccc2oc1=O	2.8 µM (inactive)	2.46 µM (inactive)	5.15 µM (inactive)	2.56 µM (inactive)	0.368 µM (active)	3.4 µM (inactive)	3.07 µM (inactive)	1.16 µM (inactive)	2 µM (inactive)	1.51 µM (inactive)	9.42 µM (inactive)	5.94 µM (inactive)	17.5 µM (inactive)	12.6 µM (inactive)	1.62 µM (inactive)	3.06 µM (inactive)	3.44 µM (inactive)	4.83 µM (inactive)	2.88 µM (inactive)	9.18 µM (inactive)
Cc1n[nH]c(=O)c2c3c([nH]c12)-c1ccccc1C3	> 100 µM (inactive)	> 100 µM (inactive)	> 100 µM (inactive)	> 100 µM (inactive)	> 100 µM (inactive)	> 100 µM (inactive)	> 100 µM (inactive)	> 100 µM (inactive)	> 100 µM (inactive)	19.5 µM (inactive)	> 100 µM (inactive)	> 100 µM (inactive)	63.4 µM (inactive)	> 100 µM (inactive)	75.3 µM (inactive)	> 100 µM (inactive)	> 100 µM (inactive)	23.5 µM (inactive)	> 100 µM (inactive)	51.1 µM (inactive)
CN(C)CCNC(=O)Cn1ccc(=O)c2c([N+](=O)[O-])cccc21	> 100 µM (inactive)	> 100 µM (inactive)	> 100 µM (inactive)	> 100 µM (inactive)	> 100 µM (inactive)	> 100 µM (inactive)	> 100 µM (inactive)	> 100 µM (inactive)	> 100 µM (inactive)	> 100 µM (inactive)	> 100 µM (inactive)	> 100 µM (inactive)	> 100 µM (inactive)	> 100 µM (inactive)	> 100 µM (inactive)	> 100 µM (inactive)	> 100 µM (inactive)	> 100 µM (inactive)	> 100 µM (inactive)	> 100 µM (inactive)
